Measurements reported in patent publication US11046697B2, “Compounds and compositions useful for treating disorders related to NTRK” (BLUEPRINT MEDICINES CORPORATION, priority 2015, dated 2021).
Where two headings read alike, the source gives them in different places.

Columns and labels:
wild type NTRK1 enzyme = molecular target: T1, wild type NTRK1 enzyme (Homo sapiens, UniProt P04629); assay: NTRK1 Wild Type Assay at 1 mM ATP; type: biochemical; settings: 1 mM ATP; read-out: Enz NTRK1 IC50
T1 construct: purchased BPS Bioscience 40280
Protocol: NTRK1 Wild Type Assay at 1 mM ATP
The reaction was stopped by the addition of 70 μL of Stop buffer (100 mM HEPES pH 7.5, 0.015% Brij 35, 35 mM EDTA and 0.2% of Coating Reagent 3 (Caliper Lifesciences)). The plate was then read on a Caliper EZReader 2 (protocol settings: −1.7 psi, upstream voltage −500, downstream voltage −3000, post sample sip 35s).

[1] = system: KM12 wild type colon carcinoma cell line harboring the TPM3-NTRK1 fusion protein; assay: NTRK wild type cellular assay (CellTiter-Glo growth inhibition); type: cell-based; settings: 72 hr, CellTiter-Glo, read-out: KM12 (WT) IC50
Protocol: (§1) NTRK Wild Type and G595R Mutant Cellular Assays Protocol
(§2) KM12 wild type colon carcinoma cell line harboring the TPM3-NTRK1 fusion protein was obtained from the National Cancer Institute (NCI). This line has been previously shown to be dependent upon the NTRK activity derived from the NTRK fusion protein for growth and survival. […] Cells were first plated in 384-well plates at 1000 cells/well in complete media (10% FBS and 1% pen/strep) and incubated overnight at 37° C. Cells were then dosed with test articles at varying concentrations using the Bravo liquid handling system. […] Each compound was run in duplicate per plate. […] 72 hr after dosing, assay plates were developed using CellTiter-Glo (Promega) and resultant luminescence was read on the Envision plate reader. IC50 determinations were calculated using a 4-parameter curve fitting algorithm

[2] = system: KM12 Cliff (G595R) cell line; assay: NTRK G595R mutant cellular assay (CellTiter-Glo growth inhibition); type: cell-based; settings: 72 hr, CellTiter-Glo
Protocol: as §1, §2

T1 sequence (P04629 440-796 limits assumed): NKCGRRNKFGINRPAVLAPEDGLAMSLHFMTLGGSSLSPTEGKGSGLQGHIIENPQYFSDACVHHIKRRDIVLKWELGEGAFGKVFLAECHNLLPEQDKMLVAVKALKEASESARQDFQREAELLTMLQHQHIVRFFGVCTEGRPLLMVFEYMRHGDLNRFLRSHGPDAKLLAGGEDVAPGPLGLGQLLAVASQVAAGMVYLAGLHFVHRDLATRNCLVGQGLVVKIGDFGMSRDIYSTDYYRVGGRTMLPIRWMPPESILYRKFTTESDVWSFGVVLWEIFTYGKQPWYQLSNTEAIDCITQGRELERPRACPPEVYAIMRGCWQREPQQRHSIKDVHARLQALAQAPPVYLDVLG

| SMILES | IC50 (wild type NTRK1 enzyme) | IC50 [1] | IC50 [2] | IC50 ([1]; Homo sapiens, KM12, 72 h) | IC50 ([2]; Homo sapiens, KM12, 72 h) |
| --- | --- | --- | --- | --- | --- |
| CN(Cc1cc(F)ccc1C(F)(F)F)C(=O)c1n[nH]c2ncnc(NC3COCC(O)C3O)c12 (stereo not drawn) [Compound 209] | < 10 nM | 10 to 100 nM | 10 to 100 nM | – | – |
| O=C(c1n[nH]c2ncnc(N[C@@H]3C=C[C@@H](O)[C@H]3O)c12)N1C[C@@H](F)C[C@@H]1c1cc(F)ccc1F [Compound 170] | < 10 nM | < 10 nM | < 10 nM | – | – |
| CN(Cc1cc(F)ccc1F)C(=O)c1n[nH]c2ncnc(N[C@@H]3COCC[C@H]3O)c12 [Compound 29] | < 10 nM | – | – | 10 to 100 nM | 10 to 100 nM |
| CN(C(=O)c1n[nH]c2ncnc(NC3CC(C(F)F)CC3O)c12)C(CO)c1cc(F)ccc1F (stereo not drawn) [Compound 180] | < 10 nM | < 10 nM | < 10 nM | – | – |
| O=C(c1n[nH]c2ncnc(N[C@H]3[C@H](O)[C@H](O)[C@@H]4C[C@@H]43)c12)N1C[C@@H](F)C[C@@H]1c1cc(F)ccc1OC(F)F [Compound 239] | < 10 nM | < 10 nM | 10 to 100 nM | – | – |
| O=C(NCc1cc(F)ccc1F)c1n[nH]c2ncnc(NC3CCC(F)C3O)c12 (stereo not drawn) [Compound 18] | 100 to 1000 nM | 100 to 1000 nM | > 1000 nM | – | – |
| O=C(c1n[nH]c2ncnc(N[C@@H]3COC[C@H]3O)c12)N1C[C@@H](F)C[C@@H]1c1cc(F)ccc1F [Compound 78] | < 10 nM | – | – | < 10 nM | 10 to 100 nM |
| CN(Cc1cc(F)cnc1Cl)C(=O)c1n[nH]c2ncnc(N[C@@H]3CCC[C@@H](O)[C@H]3O)c12 [Compound 161] | 10 to 100 nM | 10 to 100 nM | 10 to 100 nM | – | – |
| CC(NC(=O)c1n[nH]c2ncnc(NC3CCC(O)C3O)c12)c1cc(F)ccc1F (stereo not drawn) [Compound 35] | 100 to 1000 nM | 100 to 1000 nM | > 1000 nM | – | – |
| O=C(c1n[nH]c2ncnc(N[C@@H]3CC[C@@H](O)[C@H]3O)c12)N1C[C@@H](F)C[C@@H]1c1ccccc1 [Compound 144] | 10 to 100 nM | 10 to 100 nM | 100 to 1000 nM | – | – |
| O=C(c1n[nH]c2ncnc(N[C@@H]3C=C[C@@H](O)[C@H]3O)c12)N1C[C@@H](F)C[C@@H]1c1cc(F)ccc1OC(F)F [Compound 235] | < 10 nM | 10 to 100 nM | 10 to 100 nM | – | – |
| O=C(NC1(c2cc(F)ccc2F)CC1)c1n[nH]c2ncnc(N[C@@H]3COCC[C@H]3O)c12 [Compound 47] | 100 to 1000 nM | 100 to 1000 nM | 100 to 1000 nM | – | – |
| N#Cc1cc(F)cc(CNC(=O)c2n[nH]c3ncnc(N[C@@H]4CC[C@@H](O)[C@H]4O)c23)c1 [Compound 22] | 100 to 1000 nM | – | – | > 1000 nM | > 1000 nM |
| CN(Cc1cc(F)ccc1Cl)C(=O)c1n[nH]c2ncnc(N[C@@H]3COC[C@@H](O)[C@H]3O)c12 [Compound 162] | < 10 nM | – | – | 10 to 100 nM | 10 to 100 nM |
| O=C(c1n[nH]c2ncnc(N[C@@H]3C[C@@H](C(F)F)C[C@H]3O)c12)N1C[C@@H](F)C[C@@H]1c1cc(F)ccc1F [Compound 226, (4-(((1R,2R,4R)-4-(difluoromethyl)-2-hydroxycyclopentyl)amino)-1H-pyrazolo[3,4-d]pyrimidin-3-yl)((2R,4S)-2-(2,5-difluorophenyl)-4-fluoropyrrolidin-1-yl)methanone] | < 10 nM | – | – | < 10 nM | < 10 nM |
| O=C(c1n[nH]c2ncnc(NC3CCCC(O)C3O)c12)N1CC(F)CC1c1cccc(F)c1 (stereo not drawn) [Compound 168] | < 10 nM | < 10 nM | < 10 nM | – | – |
| COc1c(F)cc(F)cc1[C@H]1C[C@H](F)CN1C(=O)c1n[nH]c2ncnc(N[C@@H]3COC[C@@H](O)[C@H]3O)c12 [Compound 236] | < 10 nM | – | – | < 10 nM | 10 to 100 nM |
| O=C(c1n[nH]c2ncnc(N[C@@H]3COCC[C@H]3O)c12)N1C[C@@H](F)C[C@@H]1c1cc(F)cc(F)c1F [Compound 204] | < 10 nM | – | – | < 10 nM | < 10 nM |

| SMILES | IC50 (wild type NTRK1 enzyme) | IC50 [1] | IC50 [2] | IC50 ([1]; Homo sapiens, KM12, 72 h) | IC50 ([2]; Homo sapiens, KM12, 72 h) |
| --- | --- | --- | --- | --- | --- |
| O=C(c1n[nH]c2ncnc(N[C@H]3[C@H](O)[C@H](O)[C@@H]4C[C@@H]43)c12)N1C[C@@H](F)C[C@@H]1c1cc(F)cc(F)c1F [Compound 220] | < 10 nM | < 10 nM | < 10 nM | – | – |
| O=C(c1n[nH]c2ncnc(N[C@@H]3CCC[C@H]3O)c12)N1C[C@@H](F)C[C@@H]1c1cc(F)cnc1Cl [Compound 177] | < 10 nM | – | – | < 10 nM | < 10 nM |
| O=C(NCc1cc(F)ccc1Cl)c1n[nH]c2ncnc(N[C@@H]3COCC[C@H]3O)c12 [Compound 37] | 10 to 100 nM | 100 to 1000 nM | 100 to 1000 nM | – | – |
| O=C(c1n[nH]c2ncnc(N[C@@H]3CC[C@@H](O)[C@H]3O)c12)N1C[C@@H](F)C[C@@H]1c1cc(F)cc(F)c1 [Compound 173] | < 10 nM | – | – | < 10 nM | < 10 nM |
| N#C[C@H]1C[C@@H](O)[C@H](Nc2ncnc3[nH]nc(C(=O)N4C[C@@H](F)C[C@@H]4c4cc(F)cc(Cl)c4)c23)C1 [Compound 211] | < 10 nM | – | – | < 10 nM | < 10 nM |
| O=C(c1n[nH]c2ncnc(NC3CCOCC3O)c12)N1CC(F)CC1c1cc(F)cc(Cl)c1 (stereo not drawn) [Compound 198] | < 10 nM | < 10 nM | < 10 nM | – | – |
| O=C(c1n[nH]c2ncnc(N[C@@H]3CCC[C@@H](O)[C@H]3O)c12)N1C[C@@H](F)C[C@@H]1c1cc(Cl)ccc1F [Compound 221] | < 10 nM | – | – | < 10 nM | < 10 nM |
| O=C(c1n[nH]c2ncnc(N[C@H]3[C@H](O)[C@H](O)[C@@H]4C[C@@H]43)c12)N1C[C@@H](F)C[C@@H]1c1cc(F)cc(F)c1 [Compound 188] | < 10 nM | – | – | < 10 nM | < 10 nM |
| CC(NC(=O)c1n[nH]c2ncnc(NC3CCC(O)C3O)c12)c1cc(F)ccc1F (stereo not drawn) [Compound 34] | 10 to 100 nM | 10 to 100 nM | 100 to 1000 nM | – | – |
| N#Cc1cc(F)cc([C@H]2C[C@H](F)CN2C(=O)c2n[nH]c3ncnc(N[C@H]4[C@H](O)[C@H](O)[C@@H]5C[C@@H]54)c23)c1 [Compound 129] | < 10 nM | – | – | 10 to 100 nM | 10 to 100 nM |
| O=C(N[C@H](CO)c1cc(F)ccc1F)c1n[nH]c2ncnc(N[C@@H]3COCC[C@H]3O)c12 [Compound 56] | 10 to 100 nM | – | – | 100 to 1000 nM | 100 to 1000 nM |
| CN(Cc1cccc(C#N)c1F)C(=O)c1n[nH]c2ncnc(N[C@@H]3CC[C@@H](O)[C@H]3O)c12 [Compound 142] | 10 to 100 nM | 10 to 100 nM | 100 to 1000 nM | – | – |
| CN(Cc1cc(F)cn(C)c1=O)C(=O)c1n[nH]c2ncnc(N[C@@H]3CC[C@@H](O)[C@H]3O)c12 [Compound 147] | 10 to 100 nM | – | – | 100 to 1000 nM | 100 to 1000 nM |
| CN(Cc1cc(F)cc(F)c1F)C(=O)c1n[nH]c2ncnc(N[C@@H]3COC[C@@H](O)[C@H]3O)c12 [Compound 164] | 10 to 100 nM | – | – | 10 to 100 nM | 10 to 100 nM |
| O=C(c1n[nH]c2ncnc(N[C@H]3[C@H](O)[C@H](O)[C@@H]4C[C@@H]43)c12)N1C[C@@H](F)C[C@@H]1c1cc(F)cc(Cl)c1 [Compound 214] | < 10 nM | – | – | < 10 nM | < 10 nM |
| O=C(c1n[nH]c2ncnc(N[C@H]3[C@H](O)[C@H](O)[C@@H]4C[C@@H]43)c12)N1C[C@@H](F)C[C@@H]1c1cc(F)ccc1Cl [Compound 213] | < 10 nM | – | – | < 10 nM | < 10 nM |
| O=C(c1n[nH]c2ncnc(N[C@@H]3CCC[C@@H](O)[C@H]3O)c12)N1C[C@@H](F)C[C@@H]1c1cc(F)cc(F)c1F [Compound 224] | < 10 nM | – | – | < 10 nM | < 10 nM |
